According to patent US20250325581A1, “USE OF SODIUM PENTABORATE PENTAHYDRATE AS A CHEMOTHERAPEUTIC AGENT” (YEDITEPE UNIVERSITESI, priority 2022, published 2025):
pIC50: −log10 of the molar value. Where two headings read alike, the source gives them in different places.

What was measured:
[1] = tested on: renal cancer cells (ACHN and A498) and healthy renal cells (RPTEC); details: IC50 dose for cancer cells applied 72 hours; cancer vs healthy cells
Description: Whether the death rates of renal cancer cells treated with the agent at the dosage determined by the MTS assay are dependent on apoptosis or not is determined by Annexin V assay. […] Annexin V binds to PSs, which were translocated to the outer surface of the cell, thereby making the apoptotic cell visible and it is measured by flow cytometry. Since Annexin V binding can also be observed on the surface of necrotic cells, Propidium Iodide (Red Fluorescence), which stains only dead cells, was added as a second stain. Cells, which are simultaneously stained with Annexin V-FITC (Green Fluorescence) and Propidium Iodide (Red Fluorescence), allow viable cells (FITC−PI−), early apoptotic cells (FITC+PI−), and late apoptotic or necrotic cells (FITC+PI+) to be distinguished from each other. Cells marked with Annexin V-FITCH-conjugated markers are analyzed by flow cytometry.

[2] = tested on: ACHN and A498 renal cancer cells; details: dosage determined by the MTS assay
Description: Cell proliferation analyses of renal cancer cells treated with the agent at the dosage determined by the MTS assay are performed by EdU (Ethinyl-2′-deoxyuridine) assay. […] For this assay, 10 uM EdU is applied to the cells cultured on slides placed in 6-well plates. Following the incubation, cells are fixed for 15 minutes with 3.7% formaldehyde diluted in PBS, and then washed with 3% BSA also diluted in PBS. Cell membrane permeability is increased by treatment with 0.5% nonionic surfactant diluted in PBS at room temperature for 20 minutes. After a final washing with 3% BSA solution, the reaction cocktail is added to the cells. Cells are incubated at room temperature for 30 minutes, and then the EdU-stained cells, which are actively synthesizing DNA, are observed under a confocal microscope.

ACHN renal cancer cells = tested on: ACHN renal cancer cells
Description: (§1) The effective dose of NaB on renal cancer was determined by colorimetric tetrazolium (MTS) viability assay on renal cancer cells (ACHN and A498) and healthy renal cells (RPTEC). MTS (3-(4,5-dimethyl-thiazol-2-yl)-5-(3-carboxy-methoxy-phenyl)-2-(4-sulfo-phenyl)-2H-tetrazolium) is a colorimetric assay based on the tetrazolium salt. The assay measures the enzyme activity which reduces MTS to the purple formazan. Cell cultures incubated for two hours are read by measuring the absorbance at 490 nm wavelength by means of ELISA. The NaB compound is dissolved at different concentrations (at ratios of 500 μg/ml, 1000 μg/ml, 1500 μg/ml, 2000 μg/ml, 2500 μg/ml, 3000 μg/ml, 3500 μg/ml for renal cancer cells, and 500 μg/ml, 1000 μg/ml, 2500 μg/ml, 5000 μg/ml, 7000 μg/ml for healthy renal cells) in the medium suitable for the cell used (30 seconds of vortexing is applied after the addition of the agent), filtered through 0.22 micron filters, and sterilized. MTS assays are performed at hours 24, 48, and 72, and as a result, the concentrations of dead cells at the IC50 dose are determined and the next steps are continued with these dosages.

A498 renal cancer cells = tested on: A498 renal cancer cells
Description: as §1

## sodium pentaborate pentahydrate
[1]
  programmed cell death (apoptosis): selectively leads cancer cells to programmed cell death
[2]
  effect on cell proliferation: slows down cell proliferation
ACHN renal cancer cells; Hour 24
  IC50 determined by MTS: >7000 µg/mL
ACHN renal cancer cells; Hour 48
  IC50 determined by MTS: 2000 µg/mL
ACHN renal cancer cells; Hour 72
  IC50 determined by MTS (dose which killed 50% of renal cancer cells): 1550 µg/mL
ACHN renal cancer cells; read-out: dose which killed 50% of renal cancer cells, molar equivalent of the μg/ml value
  pIC50: 2.28
A498 renal cancer cells; A498, Hour 24
  IC50 determined by MTS: >7000 µg/mL
A498 renal cancer cells; A498, Hour 48
  IC50 determined by MTS: 1900 µg/mL
A498 renal cancer cells; A498, Hour 72
  IC50 determined by MTS (dose which killed 50% of renal cancer cells): 1400 µg/mL
A498 renal cancer cells; read-out: dose which killed 50% of renal cancer cells, A498, molar equivalent of the μg/ml value
  pIC50: 2.33
